Assay results: patent publication US8680159B2, “Bradykinin 1 receptor modulating compounds” (Gruenenthal GmbH, priority 2010, dated 2014)

What follows are molecules tested against T1, human B1R receptor (CHO K1 cells stably transfected with the human B1R gene) (Homo sapiens, UniProt P46663) (assay: Functional study on the bradykinin receptor 1 (B1R), Ca2+ fluorescence (Fluo-4) FLIPR/Novostar assay, hB1R cells). Conditions: CHO-K1, read-out: % Inhibition (h-B1R) at 10 μM.
T1 construct: expressed in transfected cells; host or cells: CHO K1 cells (Chinese hamster ovary), stably transfected
T1 sequence (P46663 1-353): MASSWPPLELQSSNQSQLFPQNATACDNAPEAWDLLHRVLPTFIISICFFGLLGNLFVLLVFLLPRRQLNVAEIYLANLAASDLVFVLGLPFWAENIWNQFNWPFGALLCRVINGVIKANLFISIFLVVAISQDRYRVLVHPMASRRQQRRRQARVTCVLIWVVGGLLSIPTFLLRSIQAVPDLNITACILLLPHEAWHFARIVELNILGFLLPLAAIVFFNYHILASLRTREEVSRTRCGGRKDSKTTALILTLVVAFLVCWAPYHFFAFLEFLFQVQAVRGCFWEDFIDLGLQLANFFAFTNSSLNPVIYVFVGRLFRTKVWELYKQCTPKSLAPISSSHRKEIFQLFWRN
Assay type: cell-based
Method: The agonistic or antagonistic action of substances can be quantified on the bradykinin receptor 1 (B1R) of the species human and rat using ectopically expressing cell lines (CHO K1 cells) and with the aid of a Ca^2+-sensitive dye (Fluo-4) using a fluorescent imaging plate reader (FLIPR). The indication in % activation is based on the Ca^2+ signal after addition of Lys-Des-Arg^9-bradykinin (0.5 nM) or Des-Arg^9-bradykinin (100 nM). Antagonists lead to suppression of the Ca^2+ influx after the addition of the agonist. % Inhibition compared with the maximum achievable inhibition is indicated.
The agonistic or antagonistic action of substances can be determined on the bradykinin receptor 1 (B1R) of the species human and rat using the following assay. According to this assay, the increase in intracellular Ca^2+ following administration of a B1R agonist is quantified with the aid of a Ca^2+-sensitive dye (Fluo-4 type, Molecular Probes Europe BV, Leiden, Netherlands) using a Fluorescent Imaging Plate Reader (FLIPR, Molecular Devices, Sunnyvale, USA) and/or using a Novostar (BMG Labtech GmbH, Offenburg, Germany).
Chinese hamster ovary cells (CHO K1 cells) which have been stably transfected with the human B1R gene (hB1R cells) or with the B1R gene of the rat (rB1R cells) are used. For functional studies, the cells are plated out on black 96-well plates having a clear base (BD Biosciences, Heidelberg, Germany or Greiner, Frickenhausen, Germany) in a density of 20,000-35,000 cells/well. The cells are left overnight at 37° C. and with 5% CO2 in culture medium (hB1R cells: Nutrient Mixture Ham's F12, Gibco Invitrogen GmbH, Karlsruhe, Germany or DMEM, Sigma-Aldrich, Taufkirchen, Germany; rB1R cells: D-MEM/F12, Gibco Invitrogen GmbH, Karlsruhe, Germany), with 10 vol. % FBS (fetal bovine serum, Gibco Invitrogen GmbH, Karlsruhe, Germany or PAN Biotech GmbH, Aidenbach, Germany). On the following day, the cells are loaded for 60 minutes at 37° C. with 2.13 μM Fluo-4 (Molecular Probes Europe BV, Leiden, Netherlands) in HBSS buffer (Hank's buffered saline solution, Gibco Invitrogen GmbH, Karlsruhe, Germany) […] (Sigma-Aldrich, Taufkirchen, Germany) and 10 mM HEPES (Sigma-Aldrich, Taufkirchen, Germany). The plates are then washed twice with HBSS buffer, and HBSS buffer additionally containing 0.1% BSA (bovine serum albumin; Sigma-Aldrich, Taufkirchen, Germany), 5.6 mM glucose and 0.05% gelatin (Merck KGaA, Darmstadt, Germany) is added to the plates. After incubation for a further 20 minutes at room temperature, the plates are inserted into the FLIPR or Novostar for Ca^2+ measurement. Alternatively, washing is carried out with buffer A (15 mM HEPES, 80 mM NaCl, 5 mM KCl, 1.2 mM CaCl2, 0.7 mM MgSO4, 2 g/l glucose, 2.5 mM probenecid) followed by loading with buffer A with added 2.5 μM Fluo-4 and 0.025% Pluronic F127 (Sigma-Aldrich, Taufkirchen, Germany). The cells are then washed twice with buffer A and incubated for 30 minutes at room temperature with buffer A additionally containing 0.05% BSA and 0.05% gelatin and are then inserted into the FLIPR or Novostar for Ca^2+ measurement. The Ca^2+-dependent fluorescence is measured before and after the addition of substances (λex=488 nm, λem=540 nm). Quantification is carried out by measuring the highest fluorescence intensity (FC, fluorescence counts) over time.
The FLIPR protocol consists of 2 substance additions, which are pipetted in the FLIPR. In the case of measurements using the Novostar, only the second substance addition is pipetted in the device. Both devices measure the fluorescence intensity over time. Test substances (10 μM) are first pipetted onto the cells and the intracellular Ca^2+ increase is compared with the control (hB1R: Lys-Des-Arg^9-bradykinin>=50 nM; rB1R: Des-Arg^9-bradykinin>=1 μM). This gives the % activation, based on the Ca^2+ signal after addition of Lys-Des-Arg^9-bradykinin (>=50 nM) or Des-Arg^9-bradykinin (>=1 μM). […]

Structure (SMILES)	inhibition at 10 µM [%]
Cc1cccc(C)c1C(=O)NC1CCOc2ccc(C(=O)N(C)C3CCN(c4ccncc4)CC3)cc21 (stereo not shown) [CC_H-71, 4-[(2,6-Dimethyl-benzoyl)amino]-N-methyl-N-(1-pyridin-4-yl-piperidin-4-yl)-3,4-dihydro-2H-chromene-6-carboxylic acid amide]	84
CN(C(=O)c1ccc2c(c1)C(NC(=O)c1c(Cl)cccc1C(F)(F)F)CCO2)C1CCN(c2ccncc2)CC1 (stereo not shown) [CC_H-72, 4-[[2-Chloro-6-(trifluoromethyl)-benzoyl]amino]-N-methyl-N-(1-pyridin-4-yl-piperidin-4-yl)-3,4-dihydro-2H-chromene-6-carboxylic acid amide]	93
CN(C(=O)c1ccc2c(c1)C(NC(=O)c1ccccc1Cl)CCC2)C1CCN(c2ccncc2)CC1 (stereo not shown) [CC_H-73, 8-[(2-Chloro-benzoyl)amino]-N-methyl-N-(1-pyridin-4-yl-piperidin-4-yl)-5,6,7,8-tetrahydro-naphthalene-2-carboxylic acid amide]	100
O=C(NCCC1CCN(c2ccncc2)CC1)c1ccc2c(c1)C(NC(=O)c1cccc(Cl)c1Cl)CC2 (stereo not shown) [CC_H-74, 3-[(2,3-Dichloro-benzoyl)amino]-N-[2-(1-pyridin-4-yl-piperidin-4-yl)-ethyl]-2,3-dihydro-1H-indene-5-carboxylic acid amide]	96
CN(C(=O)c1ccc2c(c1)C(NC(=O)c1ccccc1Cl)CC2)C1CCN(c2ccc3cnccc3c2)CC1 (stereo not shown) [CC_H-75, 3-[(2-Chloro-benzoyl)amino]-N-(1-isoquinolin-6-yl-piperidin-4-yl)-N-methyl-2,3-dihydro-1H-indene-5-carboxylic acid amide]	99
CN(C(=O)c1ccc2c(c1)C(NC(=O)c1cc(F)ccc1Cl)CC2)C1CCN(c2ccc3cnccc3c2)CC1 (stereo not shown) [CC_H-76, 3-[(2-Chloro-5-fluoro-benzoyl)amino]-N-(1-isoquinolin-6-yl-piperidin-4-yl)-N-methyl-2,3-dihydro-1H-indene-5-carboxylic acid amide]	100
CN(C(=O)c1ccc2c(c1)C(NC(=O)C1CCCCC1)CC2)C1CCN(c2ccc3cnccc3c2)CC1 (stereo not shown) [CC_H-77, 3-(Cyclohexanecarbonylamino)-N-(1-isoquinolin-6-yl-piperidin-4-yl)-N-methyl-2,3-dihydro-1H-indene-5-carboxylic acid amide]	99
CN(C(=O)c1ccc2c(c1)C(NC(=O)CCC1CCCC1)CC2)C1CCN(c2ccc3cnccc3c2)CC1 (stereo not shown) [CC_H-78, 3-(3-Cyclopentyl-propanoylamino)-N-(1-isoquinolin-6-yl-piperidin-4-yl)-N-methyl-2,3-dihydro-1H-indene-5-carboxylic acid amide]	100
CC(C)CC(=O)NC1CCc2ccc(C(=O)N(C)C3CCN(c4ccc5cnccc5c4)CC3)cc21 (stereo not shown) [CC_H-79, N-(1-Isoquinolin-6-yl-piperidin-4-yl)-N-methyl-3-(3-methyl-butanoylamino)-2,3-dihydro-1H-indene-5-carboxylic acid amide]	99
CN(C(=O)c1ccc2c(c1)C(NC(=O)c1sccc1Cl)CC2)C1CCN(c2ccc3cnccc3c2)CC1 (stereo not shown) [CC_H-80, 3-Chloro-N-[6-[(1-isoquinolin-6-yl-piperidin-4-yl)-methyl-carbamoyl]-2,3-dihydro-1H-inden-1-yl]-thiophene-2-carboxylic acid amide]	98
Cc1cc(N2CCC(N(C)C(=O)c3ccc4c(c3)C(N(C)C(=O)C3CCCCC3)CC4)CC2)cc(C)n1 (stereo not shown) [CC_H-81, 3-(Cyclohexanecarbonyl-methyl-amino)-N-[1-(2,6-dimethyl-pyridin-4-yl)-piperidin-4-yl]-N-methyl-2,3-dihydro-1H-indene-5-carboxylic acid amide]	100

Further lines, results first:

inhibition at 10 µM [%]	Structure (SMILES)
100	Cc1cc(N2CCC(N(C)C(=O)c3ccc4c(c3)C(N(C)C(=O)c3cc(F)ccc3Cl)CC4)CC2)cc(C)n1 (stereo not shown) [CC_H-82, 3-[(2-Chloro-5-fluoro-benzoyl)-methyl-amino]-N-[1-(2,6-dimethyl-pyridin-4-yl)-piperidin-4-yl]-N-methyl-2,3-dihydro-1H-indene-5-carboxylic acid amide]
100	Cc1cc(N2CCC(N(C)C(=O)c3ccc4c(c3)C(N(C)C(=O)c3cccc(Cl)c3Cl)CC4)CC2)cc(C)n1 (stereo not shown) [CC_H-83, 3-[(2,3-Dichloro-benzoyl)-methyl-amino]-N-[1-(2,6-dimethyl-pyridin-4-yl)-piperidin-4-yl]-N-methyl-2,3-dihydro-1H-indene-5-carboxylic acid amide]
100	Cc1cc(N2CCC(N(C)C(=O)c3ccc4c(c3)C(N(C)C(=O)CCC3CCCC3)CC4)CC2)cc(C)n1 (stereo not shown) [CC_H-84, 3-(3-Cyclopentyl-propanoyl-methyl-amino)-N-[1-(2,6-dimethyl-pyridin-4-yl)-piperidin-4-yl]-N-methyl-2,3-dihydro-1H-indene-5-carboxylic acid amide]
99	Cc1cccc(C)c1C(=O)NC1CC(C)(C)c2ccc(C(=O)N(C)C3CCN(c4ccncc4)CC3)cc21 (stereo not shown) [CC_H-85, 3-[(2,6-Dimethyl-benzoyl)amino]-N,1,1-trimethyl-N-(1-pyridin-4-yl-piperidin-4-yl)-2,3-dihydro-indene-5-carboxylic acid amide]
95	Cc1cc(N2CCC(N(C)C(=O)c3ccc4c(c3)C(N(C)C(=O)c3cnccc3C(F)(F)F)CC4)CC2)cc(C)n1 (stereo not shown) [CC_H-86, N-[6-[[1-(2,6-Dimethyl-pyridin-4-yl)-piperidin-4-yl]-methyl-carbamoyl]-2,3-dihydro-1H-inden-1-yl]-N-methyl-4-(trifluoromethyl)-pyridine-3-carboxylic acid amide]
100	Cc1cc(N2CCC(N(C)C(=O)c3ccc4c(c3)C(N(C)C(=O)c3ccccc3Cl)CC4)CC2)cc(C)n1 (stereo not shown) [CC_H-87, 3-[(2-Chloro-benzoyl)-methyl-amino]-N-[1-(2,6-dimethyl-pyridin-4-yl)-piperidin-4-yl]-N-methyl-2,3-dihydro-1H-indene-5-carboxylic acid amide]
100	Cc1cc(N2CCC(N(C)C(=O)c3ccc4c(c3)C(N(C)C(=O)c3sccc3Cl)CC4)CC2)cc(C)n1 (stereo not shown) [CC_H-88, 3-Chloro-N-[6-[[1-(2,6-dimethyl-pyridin-4-yl)-piperidin-4-yl]-methyl-carbamoyl]-2,3-dihydro-1H-inden-1-yl]-N-methyl-thiophene-2-carboxylic acid amide]
100	CN(C(=O)c1ccc2c(c1)C(NS(=O)(=O)Cc1ccccc1C(F)(F)F)CC2(C)C)C1CCN(c2ccncc2)CC1 (stereo not shown) [CC_H-89, N,1,1-Trimethyl-N-(1-pyridin-4-yl-piperidin-4-yl)-3-[[[2-(trifluoromethyl)-phenyl]-methylsulfonyl]amino]-2,3-dihydro-indene-5-carboxylic acid amide]
